Source: ChEMBL document CHEMBL4725218, “Deep Learning Enhancing Kinome-Wide Polypharmacology Profiling: Model Construction and Experiment Validation” (J Med Chem, 2020)

Assays:
[1] = target: Vascular endothelial growth factor receptor 1 (Homo sapiens) (UniProt P17948); experiment: Inhibition of human VEGFR1 assessed as remaining enzyme activity at 0.01 uM
[2] = target: Ephrin type-A receptor 2 (Homo sapiens) (UniProt P29317); experiment: Inhibition of human EphA2 assessed as remaining enzyme activity at 0.01 uM
Chain of Ephrin type-A receptor 2 (Homo sapiens) (P29317 whole entry): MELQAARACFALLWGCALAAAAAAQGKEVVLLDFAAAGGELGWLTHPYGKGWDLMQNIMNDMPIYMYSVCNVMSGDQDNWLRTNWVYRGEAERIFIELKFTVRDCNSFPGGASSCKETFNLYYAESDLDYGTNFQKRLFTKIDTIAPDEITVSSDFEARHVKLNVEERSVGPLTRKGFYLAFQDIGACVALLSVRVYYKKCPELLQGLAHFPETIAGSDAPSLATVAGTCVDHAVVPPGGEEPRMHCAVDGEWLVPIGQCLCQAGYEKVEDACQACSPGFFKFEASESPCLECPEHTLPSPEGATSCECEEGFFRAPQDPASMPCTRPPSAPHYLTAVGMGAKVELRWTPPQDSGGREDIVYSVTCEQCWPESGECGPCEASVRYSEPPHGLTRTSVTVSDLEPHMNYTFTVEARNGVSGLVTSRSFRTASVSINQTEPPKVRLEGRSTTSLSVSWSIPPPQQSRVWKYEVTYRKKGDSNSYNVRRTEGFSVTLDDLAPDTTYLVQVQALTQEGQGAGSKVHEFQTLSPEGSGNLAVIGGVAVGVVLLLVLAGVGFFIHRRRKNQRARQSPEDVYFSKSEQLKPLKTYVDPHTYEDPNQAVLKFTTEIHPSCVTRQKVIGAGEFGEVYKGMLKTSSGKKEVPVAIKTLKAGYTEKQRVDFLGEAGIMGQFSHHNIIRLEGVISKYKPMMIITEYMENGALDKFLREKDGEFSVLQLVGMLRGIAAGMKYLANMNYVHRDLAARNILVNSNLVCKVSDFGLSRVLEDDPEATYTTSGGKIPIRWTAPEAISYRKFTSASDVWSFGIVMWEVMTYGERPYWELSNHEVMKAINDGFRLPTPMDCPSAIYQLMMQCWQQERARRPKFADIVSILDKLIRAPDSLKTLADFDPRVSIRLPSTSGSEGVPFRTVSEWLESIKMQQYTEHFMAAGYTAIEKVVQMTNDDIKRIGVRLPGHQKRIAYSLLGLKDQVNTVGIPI

[3] = target: T1, Homeodomain-interacting protein kinase 4 (Homo sapiens) (UniProt Q8NE63); experiment: Inhibition of human HIPK4 assessed as remaining enzyme activity at 0.1 uM
T1 sequence (whole entry): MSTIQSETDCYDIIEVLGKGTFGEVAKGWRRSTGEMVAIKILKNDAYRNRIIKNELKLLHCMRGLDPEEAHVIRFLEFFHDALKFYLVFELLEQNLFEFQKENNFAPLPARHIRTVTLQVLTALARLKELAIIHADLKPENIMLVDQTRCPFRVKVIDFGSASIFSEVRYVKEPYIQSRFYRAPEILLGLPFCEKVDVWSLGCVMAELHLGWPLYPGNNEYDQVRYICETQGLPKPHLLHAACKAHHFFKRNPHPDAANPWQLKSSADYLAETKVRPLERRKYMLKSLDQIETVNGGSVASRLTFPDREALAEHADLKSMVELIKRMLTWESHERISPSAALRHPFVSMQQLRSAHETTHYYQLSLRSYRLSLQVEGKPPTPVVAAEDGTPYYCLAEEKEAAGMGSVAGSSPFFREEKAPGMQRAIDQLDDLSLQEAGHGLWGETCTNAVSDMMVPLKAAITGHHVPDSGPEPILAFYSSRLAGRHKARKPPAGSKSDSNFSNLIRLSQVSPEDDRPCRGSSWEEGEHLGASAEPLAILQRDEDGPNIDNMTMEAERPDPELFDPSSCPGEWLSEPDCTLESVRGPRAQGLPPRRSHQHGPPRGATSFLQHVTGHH

[4] = target: Tyrosine-protein kinase ABL1 (Mus musculus) (UniProt P00520); experiment: Inhibition of mouse Abl assessed as remaining enzyme activity at 1 uM
Chain of Tyrosine-protein kinase ABL1 (Mus musculus) (P00520 whole entry): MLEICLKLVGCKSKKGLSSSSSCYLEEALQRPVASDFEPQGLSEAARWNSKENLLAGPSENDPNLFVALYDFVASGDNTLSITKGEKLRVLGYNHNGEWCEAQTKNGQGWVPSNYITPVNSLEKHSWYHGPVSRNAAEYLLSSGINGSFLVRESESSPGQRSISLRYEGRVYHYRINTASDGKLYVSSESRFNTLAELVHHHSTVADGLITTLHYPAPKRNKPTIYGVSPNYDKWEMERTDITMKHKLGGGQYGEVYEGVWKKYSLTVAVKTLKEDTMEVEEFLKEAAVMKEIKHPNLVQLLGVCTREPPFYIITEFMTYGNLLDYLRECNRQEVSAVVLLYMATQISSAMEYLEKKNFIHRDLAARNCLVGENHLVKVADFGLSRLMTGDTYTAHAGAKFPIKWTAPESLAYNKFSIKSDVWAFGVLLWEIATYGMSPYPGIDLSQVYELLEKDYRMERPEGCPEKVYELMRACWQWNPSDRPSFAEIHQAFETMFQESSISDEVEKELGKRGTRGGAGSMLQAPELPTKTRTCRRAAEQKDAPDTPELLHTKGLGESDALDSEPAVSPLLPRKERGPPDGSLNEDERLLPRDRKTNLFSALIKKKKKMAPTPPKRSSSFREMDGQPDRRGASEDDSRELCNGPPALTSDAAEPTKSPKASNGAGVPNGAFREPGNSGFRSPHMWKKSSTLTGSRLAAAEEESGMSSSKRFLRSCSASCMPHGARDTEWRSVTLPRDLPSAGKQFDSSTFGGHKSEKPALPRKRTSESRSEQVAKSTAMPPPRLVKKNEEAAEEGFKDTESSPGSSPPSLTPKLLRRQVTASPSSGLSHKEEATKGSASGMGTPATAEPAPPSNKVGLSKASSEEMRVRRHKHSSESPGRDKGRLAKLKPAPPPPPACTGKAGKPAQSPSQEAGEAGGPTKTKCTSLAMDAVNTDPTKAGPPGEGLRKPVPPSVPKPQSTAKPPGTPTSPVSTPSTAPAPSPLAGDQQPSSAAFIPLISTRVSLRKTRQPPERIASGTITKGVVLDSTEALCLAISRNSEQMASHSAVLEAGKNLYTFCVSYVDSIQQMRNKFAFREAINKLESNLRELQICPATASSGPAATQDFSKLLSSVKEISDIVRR

[5] = target: Tyrosine-protein kinase FRK (Homo sapiens) (UniProt P42685); experiment: Inhibition of human PTK5 assessed as remaining enzyme activity at 0.01 uM
Chain of Tyrosine-protein kinase FRK (Homo sapiens) (P42685 whole entry): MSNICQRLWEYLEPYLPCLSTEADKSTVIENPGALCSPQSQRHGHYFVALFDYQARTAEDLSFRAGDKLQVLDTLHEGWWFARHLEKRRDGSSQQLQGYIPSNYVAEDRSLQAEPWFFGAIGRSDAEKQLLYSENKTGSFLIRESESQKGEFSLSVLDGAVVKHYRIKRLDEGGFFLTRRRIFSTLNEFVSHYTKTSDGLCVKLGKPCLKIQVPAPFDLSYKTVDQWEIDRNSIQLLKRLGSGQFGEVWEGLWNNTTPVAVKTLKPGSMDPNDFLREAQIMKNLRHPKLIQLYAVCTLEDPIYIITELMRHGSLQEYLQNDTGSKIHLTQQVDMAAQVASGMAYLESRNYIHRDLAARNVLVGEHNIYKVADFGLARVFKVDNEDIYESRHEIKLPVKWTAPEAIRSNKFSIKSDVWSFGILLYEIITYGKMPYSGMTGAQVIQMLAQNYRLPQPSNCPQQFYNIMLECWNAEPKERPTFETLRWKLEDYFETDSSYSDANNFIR

[6] = target: Homeodomain-interacting protein kinase 2 (Homo sapiens) (UniProt Q9H2X6); experiment: Inhibition of human HIPK2 assessed as remaining enzyme activity at 0.1 uM
Chain of Homeodomain-interacting protein kinase 2 (Homo sapiens) (Q9H2X6 whole entry, looked up): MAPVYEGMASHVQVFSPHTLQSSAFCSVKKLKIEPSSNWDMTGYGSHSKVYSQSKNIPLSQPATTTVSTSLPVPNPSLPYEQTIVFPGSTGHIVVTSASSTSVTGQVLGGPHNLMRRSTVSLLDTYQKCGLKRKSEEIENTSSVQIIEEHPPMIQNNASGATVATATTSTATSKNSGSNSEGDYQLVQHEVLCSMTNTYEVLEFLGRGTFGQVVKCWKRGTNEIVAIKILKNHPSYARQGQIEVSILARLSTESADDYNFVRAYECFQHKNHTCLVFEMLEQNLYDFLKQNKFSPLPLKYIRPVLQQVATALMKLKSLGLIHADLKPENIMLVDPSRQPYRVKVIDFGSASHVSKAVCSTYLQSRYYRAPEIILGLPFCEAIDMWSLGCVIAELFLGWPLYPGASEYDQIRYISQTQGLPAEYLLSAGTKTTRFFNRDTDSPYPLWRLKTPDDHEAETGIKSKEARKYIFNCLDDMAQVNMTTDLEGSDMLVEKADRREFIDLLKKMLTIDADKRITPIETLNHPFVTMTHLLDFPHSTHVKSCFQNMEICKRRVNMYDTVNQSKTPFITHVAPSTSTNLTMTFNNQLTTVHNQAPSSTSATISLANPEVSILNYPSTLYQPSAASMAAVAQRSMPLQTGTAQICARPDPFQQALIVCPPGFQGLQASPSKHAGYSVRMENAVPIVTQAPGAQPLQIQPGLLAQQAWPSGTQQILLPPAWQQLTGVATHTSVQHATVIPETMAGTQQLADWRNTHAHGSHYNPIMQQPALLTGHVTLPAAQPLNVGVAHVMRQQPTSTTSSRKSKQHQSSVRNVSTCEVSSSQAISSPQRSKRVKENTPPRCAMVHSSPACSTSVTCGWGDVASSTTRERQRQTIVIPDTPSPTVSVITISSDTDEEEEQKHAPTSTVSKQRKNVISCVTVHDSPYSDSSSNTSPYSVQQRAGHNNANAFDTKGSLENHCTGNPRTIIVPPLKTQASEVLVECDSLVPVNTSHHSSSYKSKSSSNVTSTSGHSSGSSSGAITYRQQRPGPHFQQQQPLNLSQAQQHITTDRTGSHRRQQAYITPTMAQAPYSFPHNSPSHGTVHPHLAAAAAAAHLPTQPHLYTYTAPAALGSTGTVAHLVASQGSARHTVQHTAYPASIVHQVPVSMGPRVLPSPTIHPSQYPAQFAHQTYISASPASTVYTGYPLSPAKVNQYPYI

[7] = target: Mitogen-activated protein kinase kinase kinase 20 (Homo sapiens) (UniProt Q9NYL2); experiment: Inhibition of human ZAK assessed as remaining enzyme activity at 0.01 uM
Chain of Mitogen-activated protein kinase kinase kinase 20 (Homo sapiens) (Q9NYL2 2-800 limits assumed): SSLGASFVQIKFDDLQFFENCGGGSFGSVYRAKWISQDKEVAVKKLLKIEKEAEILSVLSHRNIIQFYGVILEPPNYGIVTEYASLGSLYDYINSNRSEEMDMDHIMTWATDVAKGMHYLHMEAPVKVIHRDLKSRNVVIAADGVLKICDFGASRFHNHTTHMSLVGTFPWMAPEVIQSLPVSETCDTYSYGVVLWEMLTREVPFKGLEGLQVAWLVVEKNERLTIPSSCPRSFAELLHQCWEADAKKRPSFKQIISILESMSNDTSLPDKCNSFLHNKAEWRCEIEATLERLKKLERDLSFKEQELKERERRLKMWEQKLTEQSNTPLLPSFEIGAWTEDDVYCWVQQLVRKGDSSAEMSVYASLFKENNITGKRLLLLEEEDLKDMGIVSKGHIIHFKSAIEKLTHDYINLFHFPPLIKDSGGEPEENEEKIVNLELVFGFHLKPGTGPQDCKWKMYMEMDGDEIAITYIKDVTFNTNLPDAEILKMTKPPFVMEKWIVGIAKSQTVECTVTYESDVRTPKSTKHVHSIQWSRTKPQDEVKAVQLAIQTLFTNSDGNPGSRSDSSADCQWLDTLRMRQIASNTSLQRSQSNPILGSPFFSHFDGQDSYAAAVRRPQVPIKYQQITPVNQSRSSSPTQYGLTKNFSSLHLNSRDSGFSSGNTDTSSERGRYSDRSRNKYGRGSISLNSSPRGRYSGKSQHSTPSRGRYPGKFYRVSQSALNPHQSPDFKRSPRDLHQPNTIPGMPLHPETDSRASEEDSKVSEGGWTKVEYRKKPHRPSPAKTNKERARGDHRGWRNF

[8] = target: T2, Muscle, skeletal receptor tyrosine-protein kinase (Homo sapiens) (UniProt O15146); experiment: Inhibition of human MuSK assessed as remaining enzyme activity at 1 uM
T2 sequence (whole entry): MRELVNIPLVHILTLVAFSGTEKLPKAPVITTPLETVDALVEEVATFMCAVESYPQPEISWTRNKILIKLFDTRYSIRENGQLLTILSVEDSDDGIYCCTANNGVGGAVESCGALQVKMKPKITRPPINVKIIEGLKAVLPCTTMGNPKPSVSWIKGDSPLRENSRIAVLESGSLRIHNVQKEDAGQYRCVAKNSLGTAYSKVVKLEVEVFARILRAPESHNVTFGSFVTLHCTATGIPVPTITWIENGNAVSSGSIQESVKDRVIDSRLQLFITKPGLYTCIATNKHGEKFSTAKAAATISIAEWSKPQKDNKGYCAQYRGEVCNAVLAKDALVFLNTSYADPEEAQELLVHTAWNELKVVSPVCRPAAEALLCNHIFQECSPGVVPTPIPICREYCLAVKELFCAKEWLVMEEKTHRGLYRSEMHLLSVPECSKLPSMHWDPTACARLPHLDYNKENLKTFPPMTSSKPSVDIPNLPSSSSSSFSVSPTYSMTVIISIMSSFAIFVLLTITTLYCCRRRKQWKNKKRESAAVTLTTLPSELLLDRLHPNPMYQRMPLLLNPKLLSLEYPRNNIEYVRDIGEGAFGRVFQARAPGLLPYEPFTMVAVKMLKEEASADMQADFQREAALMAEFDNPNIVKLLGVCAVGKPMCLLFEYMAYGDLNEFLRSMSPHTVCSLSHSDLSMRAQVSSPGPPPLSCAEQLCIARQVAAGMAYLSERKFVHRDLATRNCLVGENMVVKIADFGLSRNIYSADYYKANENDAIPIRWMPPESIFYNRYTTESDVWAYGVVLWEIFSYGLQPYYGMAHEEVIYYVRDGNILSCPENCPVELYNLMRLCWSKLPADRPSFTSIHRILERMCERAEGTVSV

## CNC(=O)c1cc(Oc2ccc(NC(=O)Nc3ccc(Cl)c(C(F)(F)F)c3)c(F)c2)ccn1
[1]
  Activity: 43%
[2]
  Activity: 90%
[3]
  Activity: 3%
[4]
  Activity: -1%
[5]
  Activity: 64%
[6]
  Activity: 61%
[7]
  Activity: 27%
[8]
  Activity: 21%
